Test results: PMC11255275, “Structural insights into the triple agonism at GLP-1R, GIPR and GCGR manifested by retatrutide” (Cell Discovery, 2024)
Where a chain is given by its changes, count along the chain named.

Assays:
Assay in all cases: cAMP accumulation, single-point mutated GIPR
Assay type in all cases: cell-based
GIPR mutants [1] = molecular target: T1, GIPR mutants (Homo sapiens, UniProt P48546, R196Y); settings: GIPR R196(ECL1)Y
T1 construct: expressed in transfected cells; host or cells: HEK-293T
T1 sequence (P48546 22-466 R196Y): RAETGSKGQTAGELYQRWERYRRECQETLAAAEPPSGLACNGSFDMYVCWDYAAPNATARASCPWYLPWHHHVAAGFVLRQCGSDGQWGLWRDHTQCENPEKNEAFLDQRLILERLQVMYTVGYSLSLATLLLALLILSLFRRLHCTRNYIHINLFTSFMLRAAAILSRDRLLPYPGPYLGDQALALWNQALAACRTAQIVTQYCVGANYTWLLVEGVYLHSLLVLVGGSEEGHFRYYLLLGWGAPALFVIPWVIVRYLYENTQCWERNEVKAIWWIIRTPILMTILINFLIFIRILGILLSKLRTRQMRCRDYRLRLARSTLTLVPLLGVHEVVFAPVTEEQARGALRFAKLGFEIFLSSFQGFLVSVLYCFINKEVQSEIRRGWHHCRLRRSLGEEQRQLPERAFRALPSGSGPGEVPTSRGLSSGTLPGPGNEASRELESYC
Description: (§1) HEK-293T cells were maintained at 37°C in 5% CO2 incubator and seeded onto 6-well cell […]
(§2) culture plates before transfection. After overnight culture, the cells were transiently transfected […]
(§3) with various constructs using Lipofectamine 2000 transfection reagent (Invitrogen). After 24 h, […]
(§4) the transfected cells were seeded onto 384-microtiter plates at a density of 3,000 cells per well […]
(§5) in stimulation buffer (HBSS supplemented with 5 mM HEPES, 0.1% (w/v) casein and 0.5 mM […]
(§6) 3-isobutyl-1-methylxanthine). Different concentrations of retatrutide in stimulation buffer were […]
(§7) added, and the stimulation lasted for 40 min. The reaction was stopped by addition of cAMP […]
(§8) detection buffer containing Eu-cAMP tracer and ULight-anti-cAMP. Plates were then incubated for […]
(§9) 60 min at RT. Time-resolved FRET signals were measured at 620 nm and 665 nm, respectively, by […]
(§10) an EnVision multilabel plate reader (PerkinElmer). Data were analyzed in GraphPad PRISM 9.5 […]
(§11) and all values were normalized to that of the wild-type (WT).
(§12) Supplementary Fig. 5 Effects of receptor mutation on retatrutide-induced cAMP […]
(§13) accumulation. a-c, Signaling profiles of GLP-1R (a), GIPR (b) and GCGR (c) mutants. cAMP […]
(§14) accumulation was measured in wild-type (WT) and single-point mutated GLP-1R, GIPR or […]
(§15) GCGR expressing HEK-293T cells. cAMP levels were normalized to the maximum response […]
(§16) of the WT and dose-response curves were analyzed using a three-parameter logistic equation.
(§17) Data were generated and graphed as means ± S.E.M. of at least three independent experiments performed in quadruplicate.
(§18) (1 picture or pasted object on this page, not shown here)
(§19) Supplementary Ta b l e S 5 Effects of the ligand-binding pocket residue mutation on retatrutide- […]
(§20) induced cAMP signaling at GLP-1R, GIPR or GCGR. […]
(§21) cAMP levels were normalized to the maximum response of the wild-type (WT) and dose-response […]
(§22) curves were analyzed using a three-parameter logistic equation to obtain pEC50 and Emax values. The […]
(§23) experiments were carried out independently at least three times. Data shown are means ± S.E.M. One- […]
(§24) way ANOVA was used to determine statistical difference. N.D., values that could not be determined due […]
(§25) to incomplete curve fits. *P< 0.05, **P< 0.01, ***P< 0.001 and ****P<0.0001.

GIPR mutants [2] = molecular target: T2, GIPR mutants (Homo sapiens, UniProt P48546, R289A); settings: GIPR R289(ECL2)A, HEK-293T, 40 min, TR-FRET, mean ± S.E.M., n at least 3
T2 construct: expressed in transfected cells; host or cells: HEK-293T
Description: as §1, §2, §3, §4, §5, §6, §7, §8, §9, §10, §11, §12, §13, §14, §15, §16, §17, §18, §19, §20, §21, §22, §23, §24, §25

GIPR mutants [3] = molecular target: T3, GIPR mutants (Homo sapiens, UniProt P48546, Q285A); settings: GIPR Q285(ECL2)A; HEK-293T, 40 min, TR-FRET; mean ± S.E.M., n at least 3
T3 construct: expressed in transfected cells; host or cells: HEK-293T
Description: as §1, §2, §3, §4, §5, §6, §7, §8, §9, §10, §11, §12, §13, §14, §15, §16, §17, §18, §19, §20, §21, §22, §23, §24, §25

GIPR mutants [4] = molecular target: T4, GIPR mutants (Homo sapiens, UniProt P48546, E377A)
T4 construct: expressed in transfected cells; host or cells: HEK-293T
T4 sequence (P48546 22-466 E377A): T1 sequence (P48546 22-466 R196Y) with Y175R, E356A
Description: as §1, §2, §3, §4, §5, §6, §7, §8, §9, §10, §11, §12, §13, §14, §15, §16, §17, §18, §19, §20, §21, §22, §23, §24, §25

GIPR mutants [5] = molecular target: T5, GIPR mutants (Homo sapiens, UniProt P48546, Y36A); settings: GIPR Y36(ECD)A; HEK-293T, 40 min, TR-FRET; mean ± S.E.M., n at least 3
T5 construct: expressed in transfected cells; host or cells: HEK-293T
Description: as §1, §2, §3, §4, §5, §6, §7, §8, §9, §10, §11, §12, §13, §14, §15, §16, §17, §18, §19, §20, §21, §22, §23, §24, §25

GIPR mutants [6] = molecular target: T6, GIPR mutants (Homo sapiens, UniProt P48546, R131E); settings: GIPR R131(1.33b)E
T6 construct: expressed in transfected cells; host or cells: HEK-293T
T6 sequence (P48546 22-466 R131E): T1 sequence (P48546 22-466 R196Y) with R110E, Y175R
Description: as §1, §2, §3, §4, §5, §6, §7, §8, §9, §10, §11, §12, §13, §14, §15, §16, §17, §18, §19, §20, §21, §22, §23, §24, §25

[7] = HEK-293T, 40 min, TR-FRET, mean ± S.E.M., n at least 3

T5 sequence (P48546 22-466 Y36A): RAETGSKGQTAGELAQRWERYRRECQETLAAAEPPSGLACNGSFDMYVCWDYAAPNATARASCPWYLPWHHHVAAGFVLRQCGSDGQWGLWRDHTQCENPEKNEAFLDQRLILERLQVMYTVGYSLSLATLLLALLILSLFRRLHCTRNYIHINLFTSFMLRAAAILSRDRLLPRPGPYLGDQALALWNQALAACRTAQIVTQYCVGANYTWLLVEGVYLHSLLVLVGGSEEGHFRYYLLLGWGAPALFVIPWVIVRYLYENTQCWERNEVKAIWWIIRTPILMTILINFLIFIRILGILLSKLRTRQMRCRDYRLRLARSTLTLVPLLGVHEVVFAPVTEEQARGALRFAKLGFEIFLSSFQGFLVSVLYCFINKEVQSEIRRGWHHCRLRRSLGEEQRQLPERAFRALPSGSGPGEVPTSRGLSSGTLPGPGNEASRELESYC
T2 sequence (P48546 22-466 R289A): as the sequence (P48546 22-466 Y36A) above, with A15Y, R268A counted along it
T3 sequence (P48546 22-466 Q285A): as the sequence (P48546 22-466 Y36A) above, with A15Y, Q264A counted along it

## CC[C@H](C)[C@H](NC(=O)[C@H](Cc1ccccc1)NC(=O)[C@H](C)NC(=O)C(C)(C)NC(=O)[C@H](CCC(N)=O)NC(=O)[C@H](C)NC(=O)[C@H](CCCCNC(=O)COCCOCCNC(=O)CC[C@H](NC(=O)CCCCCCCCCCCCCCCCCCC(=O)O)C(=O)O)NC(=O)[C@H](CCCCN)NC(=O)[C@H](CC(=O)O)NC(=O)[C@H](CC(C)C)NC(=O)[C@](C)(CC(C)C)NC(=O)[C@@H](NC(=O)[C@H](CO)NC(=O)[C@H](Cc1ccc(O)cc1)NC(=O)[C@H](CC(=O)O)NC(=O)[C@H](CO)NC(=O)[C@@H](NC(=O)[C@H](Cc1ccccc1)NC(=O)[C@@H](NC(=O)CNC(=O)[C@H](CCC(N)=O)NC(=O)C(C)(C)NC(=O)[C@@H](N)Cc1ccc(O)cc1)[C@@H](C)O)[C@@H](C)O)[C@@H](C)CC)C(=O)N[C@@H](CCC(=O)O)C(=O)N[C@@H](Cc1ccc(O)cc1)C(=O)N[C@@H](CC(C)C)C(=O)N[C@@H](CC(C)C)C(=O)N[C@@H](CCC(=O)O)C(=O)NCC(=O)NCC(=O)N1CCC[C@H]1C(=O)N[C@@H](CO)C(=O)N[C@@H](CO)C(=O)NCC(=O)N[C@@H](C)C(=O)N1CCC[C@H]1C(=O)N1CCC[C@H]1C(=O)N1CCC[C@H]1C(=O)N[C@@H](CO)C(N)=O [retatrutide]
GIPR mutants [1]; relative to WT
  decrease of retatrutide potency by mutation: 107.7 fold
GIPR mutants [1]; [7]
  Emax ± S.E.M. (% WT): 92.16 ± 5.36 % WT
GIPR mutants [1]; HEK-293T, 40 min, TR-FRET, mean ± S.E.M., n at least 3, ****P < 0.0001
  EC50: 0.245 nM
GIPR mutants [2]
  Emax ± S.E.M. (% WT): 98.56 ± 4.01 % WT
GIPR mutants [2]; ***P < 0.001
  EC50: 0.0126 nM
GIPR mutants [3]
  EC50: 0.00174 nM
  Emax ± S.E.M. (% WT): 100.34 ± 4.02 % WT
GIPR mutants [4]; GIPR E7.42bA (E377A), relative to WT
  decrease of cAMP signaling potency by mutation: 71.6 fold
GIPR mutants [4]; GIPR E377(7.42b)A, HEK-293T, 40 min, TR-FRET, mean ± S.E.M., n at least 3
  Emax ± S.E.M. (% WT): 99.83 ± 6.38 % WT
GIPR mutants [4]; GIPR E377(7.42b)A, HEK-293T, 40 min, TR-FRET, mean ± S.E.M., n at least 3, ****P < 0.0001
  EC50: 0.166 nM
GIPR mutants [5]
  EC50: 0.00309 nM
  Emax ± S.E.M. (% WT): 99.10 ± 3.86 % WT
GIPR mutants [6]; relative to WT, modestly
  change of retatrutide potency by mutation: decreased
GIPR mutants [6]; [7]
  Emax ± S.E.M. (% WT): 98.44 ± 3.88 % WT
GIPR mutants [6]; HEK-293T, 40 min, TR-FRET, mean ± S.E.M., n at least 3, **P < 0.01
  EC50: 0.00933 nM
